pIC50: −log10 of the molar value.
What was measured:
Rattus norvegicus [1] = experiment: AUC (infinity) in Sprague-Dawley rat at 30 mg/kg, po; format: ADME, organism-based, Plasma; set-up: time infinity, dose 30 mg/kg, route oral; details: in vivo
Glucocorticoid receptor = target: T1, Glucocorticoid receptor (Homo sapiens, UniProt P04150); experiment: Transactivation activity at glucocorticoid receptor in human HeLa cells transfected with luciferase gene linked to MMTV promoter by luciferase assay; format: cell-based
T1 sequence (P04150 whole entry): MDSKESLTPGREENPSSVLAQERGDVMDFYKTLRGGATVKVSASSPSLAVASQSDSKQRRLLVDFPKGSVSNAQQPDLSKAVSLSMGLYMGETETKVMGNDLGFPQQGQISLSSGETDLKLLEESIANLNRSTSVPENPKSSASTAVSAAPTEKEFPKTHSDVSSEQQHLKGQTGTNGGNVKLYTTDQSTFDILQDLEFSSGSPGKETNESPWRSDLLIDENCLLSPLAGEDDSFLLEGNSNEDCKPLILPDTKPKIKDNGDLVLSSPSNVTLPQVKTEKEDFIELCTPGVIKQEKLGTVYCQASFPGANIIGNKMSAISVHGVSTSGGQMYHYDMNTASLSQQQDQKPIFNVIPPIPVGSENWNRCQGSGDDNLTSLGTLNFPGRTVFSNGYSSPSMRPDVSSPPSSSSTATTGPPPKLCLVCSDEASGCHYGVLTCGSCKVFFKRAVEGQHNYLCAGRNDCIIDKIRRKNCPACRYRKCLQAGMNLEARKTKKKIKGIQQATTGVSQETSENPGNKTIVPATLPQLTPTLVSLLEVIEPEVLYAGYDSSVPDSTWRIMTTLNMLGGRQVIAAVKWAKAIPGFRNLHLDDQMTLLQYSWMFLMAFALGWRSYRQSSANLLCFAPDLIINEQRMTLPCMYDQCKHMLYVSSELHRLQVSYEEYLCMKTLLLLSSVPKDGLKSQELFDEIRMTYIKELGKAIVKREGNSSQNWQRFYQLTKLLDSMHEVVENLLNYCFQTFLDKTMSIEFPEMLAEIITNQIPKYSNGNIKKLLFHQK

[2] = target: T2, Mineralocorticoid receptor (Homo sapiens, UniProt P08235); experiment: Binding affinity to mineralocorticoid receptor expressed in baculovirus-infected insect cells using tetramethylrhodamine labeled Dexamethasone by fluorescence polarization microplate assay
T2 sequence (P08235 whole entry): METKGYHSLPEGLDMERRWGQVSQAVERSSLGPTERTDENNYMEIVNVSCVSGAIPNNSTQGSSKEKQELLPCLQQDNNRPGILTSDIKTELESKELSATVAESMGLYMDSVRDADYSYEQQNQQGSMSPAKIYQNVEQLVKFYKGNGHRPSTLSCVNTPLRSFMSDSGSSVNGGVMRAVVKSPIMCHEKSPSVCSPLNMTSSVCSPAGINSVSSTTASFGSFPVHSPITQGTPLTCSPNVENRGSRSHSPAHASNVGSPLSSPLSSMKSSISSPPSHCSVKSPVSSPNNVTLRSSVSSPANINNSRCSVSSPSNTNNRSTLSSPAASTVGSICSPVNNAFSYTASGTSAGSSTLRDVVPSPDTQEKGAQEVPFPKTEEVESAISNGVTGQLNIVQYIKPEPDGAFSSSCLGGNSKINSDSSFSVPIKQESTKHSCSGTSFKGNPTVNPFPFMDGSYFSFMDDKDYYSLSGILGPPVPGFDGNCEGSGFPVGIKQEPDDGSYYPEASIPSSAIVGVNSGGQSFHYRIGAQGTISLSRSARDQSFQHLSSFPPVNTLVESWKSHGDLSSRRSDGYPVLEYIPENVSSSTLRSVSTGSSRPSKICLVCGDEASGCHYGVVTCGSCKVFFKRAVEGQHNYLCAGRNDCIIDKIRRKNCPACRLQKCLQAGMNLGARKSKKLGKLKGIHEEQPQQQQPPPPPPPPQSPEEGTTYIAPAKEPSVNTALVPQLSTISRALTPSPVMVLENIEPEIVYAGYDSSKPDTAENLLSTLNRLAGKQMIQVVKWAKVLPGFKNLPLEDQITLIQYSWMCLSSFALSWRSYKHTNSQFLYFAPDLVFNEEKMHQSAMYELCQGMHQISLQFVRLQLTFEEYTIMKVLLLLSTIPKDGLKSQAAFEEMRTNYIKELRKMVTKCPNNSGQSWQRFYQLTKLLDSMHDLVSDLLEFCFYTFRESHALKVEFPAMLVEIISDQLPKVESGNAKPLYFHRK

Mus musculus [3] = experiment: Antiinflammatory activity in po dosed BALB/c mouse assessed as reduction of LPS-induced plasma TNFalpha level administered 1 hr before LPS challenge by ELISA; format: functional
Rattus norvegicus [4] = experiment: Oral bioavailability in Sprague-Dawley rat at 30 mg/kg; format: ADME, organism-based; details: in vivo
Mus musculus [5] = experiment: Toxicity in B10.RIII mouse assessed as increase of triglyceride level at 30 mg/kg, po qd for 5 weeks; format: organism-based; set-up: dose 30 mg/kg, route oral; details: in vivo, 840 h
Mus musculus [6] = experiment: Toxicity in B10.RIII mouse assessed as increase of serum insulin level at 30 mg/kg, po qd for 5 weeks; format: organism-based; set-up: dose 30 mg/kg, route oral; details: in vivo, 840 h
Mus musculus [7] = experiment: Antiinflammatory effect in collagen and Freund's complete adjuvant-induced B10.RIII mouse arthritis model assessed as inhibition of disease progression at 30 mg/kg, po qd for 5 weeks; format: functional; details: 840 h

- AUC (Rattus norvegicus [1]): 2236 ng·h/mL
- pIC50 (Glucocorticoid receptor): 7.10
- pIC50 [2]: 6.68
- F (Rattus norvegicus [4]): 48%
SMILES: CC(C)(C[C@@](O)(Cc1cc2ccncc2[nH]1)C(F)(F)F)c1cc(F)ccc1O
- ED50 (Mus musculus [3]): < 0.3 mg/kg
- Activity (Mus musculus [5]): Toxic
- Activity (Mus musculus [6]): Non-toxic
- inhibition in vivo at 30 mg/kg (Mus musculus [7]): 92%

Reference: ChEMBL document CHEMBL1250518, “Nonsteroidal dissociated glucocorticoid agonists containing azaindoles as steroid A-ring mimetics” (J Med Chem, 2010)
